Consider 20 compounds from patent US10058550B2, “Methods of treating heart failure” (priority 2015, dated 2018).

Chain of human APJ receptor (P35414 whole entry): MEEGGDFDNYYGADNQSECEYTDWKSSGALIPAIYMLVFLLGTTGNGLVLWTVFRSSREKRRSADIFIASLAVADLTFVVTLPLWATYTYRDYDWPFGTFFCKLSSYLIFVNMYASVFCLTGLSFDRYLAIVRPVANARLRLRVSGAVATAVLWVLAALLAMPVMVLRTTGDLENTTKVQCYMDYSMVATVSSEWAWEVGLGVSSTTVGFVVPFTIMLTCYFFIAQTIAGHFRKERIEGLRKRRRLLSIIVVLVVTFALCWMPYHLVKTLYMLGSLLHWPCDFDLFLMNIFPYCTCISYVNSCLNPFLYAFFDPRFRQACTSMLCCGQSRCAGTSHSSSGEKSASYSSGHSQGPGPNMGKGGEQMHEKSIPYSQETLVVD

The target of this assay is human APJ receptor (Homo sapiens (Human), UniProt P35414). Kind of assay: biochemical. It counts as biochemical. The conditions noted are these: read-out: Activity hAPJ SPA EC50 IP. An outline of the steps:
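Membranes from CHO cells stably expressing cloned human APJ were incubated with WGA SPA beads in 20 mM HEPES pH 7.5, 5 mM MgCl2, 0.1% BSA, 200 mM NaCl and 3 μM GDP. Reaction started with 0.2 nM [35S]GTPγS ± ligands, 90 min at RT. EC50 obtained by non-linear regression as mean of independent experiments.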
With `COc1cccc(OC)c1-n1c(NS(=O)(=O)[C@@H](C)[C@H](OC)c2ncc(-c3cccnc3)cn2)nnc1-c1cncc(C)c1` [Example 752.0, (1R,2S)—N-(4-(2,6-dimethoxyphenyl)-5-(5-methylpyridin-3-yl)-4H-1,2,4-triazol-3-yl)-1-methoxy-1-(5-(pyridin-3-yl)pyrimidin-2-yl)propane-2-sulfonamide], the EC50 stood at 3.6 nM. With `Cc1cnc([C@@H](C)[C@H](C)S(=O)(=O)Nc2nnc(-c3cncc(C)c3)n2-c2c(OC(F)F)cccc2OC(F)F)nc1` [Example 763.0, (2S,3R)—N-(4-(2,6-bis(difluoromethoxy)phenyl)-5-(5-methylpyridin-3-yl)-4H-1,2,4-triazol-3-yl)-3-(5-methylpyrimidin-2-yl)butane-2-sulfonamide] the figure was 0.71 nM; with `COc1ncnc(OC)c1-n1c(NS(=O)(=O)[C@@H](C)[C@H](C)c2cnc(C)cn2)nnc1-c1ccccn1` [Example 773.0, (2S,3R)-N-(4-(4,6-dimethoxy-5-pyrimidinyl)-5-(2-pyridinyl)-4H-1,2,4-triazol-3-yl)-3-(5-methyl-2-pyrazinyl)-2-butanesulfonamide], 14 nM; with `COc1cccc(OC)c1-n1c(NS(=O)(=O)[C@@H](C)[C@H](C)c2cnc(C)cn2)nnc1-c1ccccn1` [Example 774.0, (2S,3R)-N-(4-(2,6-dimethoxyphenyl)-5-(2-pyridinyl)-4H-1,2,4-triazol-3-yl)-3-(5-methyl-2-pyrazinyl)-2-butanesulfonamide], 8.2 nM. With `COc1cccc(OC)c1-n1c(NS(=O)(=O)[C@@H](C)[C@H](C)c2ncc(C)cn2)nnc1-c1ccccn1` [Example 775.0, (2S,3R)-N-(4-(2,6-dimethoxyphenyl)-5-(2-pyridinyl)-4H-1,2,4-triazol-3-yl)-3-(5-methyl-2-pyrimidinyl)-2-butanesulfonamide], the EC50 is 2.1 nM. With `COc1ncnc(OC)c1-n1c(NS(=O)(=O)[C@@H](C)[C@H](C)c2ncc(C)cn2)nnc1-c1ccccn1` [Example 776.0, (2S,3R)-N-(4-(4,6-dimethoxy-5-pyrimidinyl)-5-(2-pyridinyl)-4H-1,2,4-triazol-3-yl)-3-(5-methyl-2-pyrimidinyl)-2-butanesulfonamide] the figure was 3.9 nM; with `COc1ncnc(OC)c1-n1c(NS(=O)(=O)[C@@H](C)[C@@H](OC(C)C)c2ncc(C)cn2)nnc1-c1ccccn1` [Example 777.0, (1S,2S)-N-(4-(4,6-dimethoxy-5-pyrimidinyl)-5-(2-pyridinyl)-4H-1,2,4-triazol-3-yl)-1-(1-methylethoxy)-1-(5-methyl-2-pyrimidinyl)-2-propanesulfonamide], 2.2 nM. For the compound `COc1cccc(OC)c1-n1c(NS(=O)(=O)[C@@H](C)[C@@H](OC(C)C)c2ncc(C)cn2)nnc1-c1ccccn1` [Example 778.0, (1S,2S)-N-(4-(2,6-dimethoxyphenyl)-5-(2-pyridinyl)-4H-1,2,4-triazol-3-yl)-1-(1-methylethoxy)-1-(5-methyl-2-pyrimidinyl)-2-propanesulfonamide], the EC50 came to 0.77 nM. In the case of `COc1ncnc(OC)c1-n1c(NS(=O)(=O)[C@@H](C)[C@H](OC)c2cnc(C)cn2)nnc1-c1ccccn1` [Example 779.0, (1R,2S)-N-(4-(4,6-dimethoxy-5-pyrimidinyl)-5-(2-pyridinyl)-4H-1,2,4-triazol-3-yl)-1-methoxy-1-(5-methyl-2-pyrazinyl)-2-propanesulfonamide] it was 17 nM; in that of `COc1cccc(OC)c1-n1c(NS(=O)(=O)[C@@H](C)[C@H](OC)c2cnc(C)cn2)nnc1-c1ccccn1` [Example 780.0, (1R,2S)-N-(4-(2,6-dimethoxyphenyl)-5-(2-pyridinyl)-4H-1,2,4-triazol-3-yl)-1-methoxy-1-(5-methyl-2-pyrazinyl)-2-propanesulfonamide], 8.8 nM. With `Cc1cnc([C@@H](C)[C@H](C)S(=O)(=O)Nc2nnc(-c3cccc(C)n3)n2-c2c(F)cccc2F)nc1` [Example 783.0, (2S,3R)-N-(4-(2,6-difluorophenyl)-5-(6-methyl-2-pyridinyl)-4H-1,2,4-triazol-3-yl)-3-(5-methyl-2-pyrimidinyl)-2-butanesulfonamide] the figure was 4.2 nM; with `COc1cccc(-c2nnc(NS(=O)(=O)[C@@H](C)[C@H](C)c3ncc(C)cn3)n2-c2c(F)cccc2F)n1` [Example 784.0, (2S,3R)-N-(4-(2,6-difluorophenyl)-5-(6-methoxy-2-pyridinyl)-4H-1,2,4-triazol-3-yl)-3-(5-methyl-2-pyrimidinyl)-2-butanesulfonamide], 0.4 nM. As to `Cc1cnc([C@@H](C)[C@H](C)S(=O)(=O)Nc2nnc(-c3ccccn3)n2-c2c(F)cccc2F)nc1` [Example 785.0, (2S,3R)-N-(4-(2,6-difluorophenyl)-5-(2-pyridinyl)-4H-1,2,4-triazol-3-yl)-3-(5-methyl-2-pyrimidinyl)-2-butanesulfonamide], the concentration for a half-maximal effect (EC50) was 4.9 nM.

As for `COc1cccc(-c2nnc(NS(=O)(=O)[C@@H](C)[C@H](C)c3ncc(Cl)cn3)n2-c2c(F)cccc2F)n1` [Example 786.0, (2S,3R)-3-(5-chloro-2-pyrimidinyl)-N-(4-(2,6-difluorophenyl)-5-(6-methoxy-2-pyridinyl)-4H-1,2,4-triazol-3-yl)-2-butanesulfonamide], the EC50 was 0.16 nM. In the case of `Cc1cccc(-c2nnc(NS(=O)(=O)[C@@H](C)[C@H](C)c3ncc(Cl)cn3)n2-c2c(F)cccc2F)n1` [Example 788.0, (2S,3R)-3-(5-chloro-2-pyrimidinyl)-N-(4-(2,6-difluorophenyl)-5-(6-methyl-2-pyridinyl)-4H-1,2,4-triazol-3-yl)-2-butanesulfonamide] it was 0.84 nM. With `COc1cccc(-c2nnc(NS(=O)(=O)[C@@H](C)[C@H](C)c3cnc(C)cn3)n2-c2c(F)cccc2F)n1` [Example 789.0, (2S,3R)-N-(4-(2,6-difluorophenyl)-5-(6-methoxy-2-pyridinyl)-4H-1,2,4-triazol-3-yl)-3-(5-methyl-2-pyrazinyl)-2-butanesulfonamide] the figure was 1.9 nM. In the case of `Cc1cnc([C@@H](C)[C@H](C)S(=O)(=O)Nc2nnc(-c3cccc(C)n3)n2-c2c(F)cccc2F)cn1` [Example 790.0, (2S,3R)-N-(4-(2,6-difluorophenyl)-5-(6-methyl-2-pyridinyl)-4H-1,2,4-triazol-3-yl)-3-(5-methyl-2-pyrazinyl)-2-butanesulfonamide] it was 20 nM; in that of `CNc1cccc(-c2nnc(NS(=O)(=O)[C@@H](C)[C@H](C)c3ncc(C)cn3)n2-c2c(F)cccc2F)n1` [Example 791.0, (2S,3R)-N-(4-(2,6-difluorophenyl)-5-(6-(methylamino)-2-pyridinyl)-4H-1,2,4-triazol-3-yl)-3-(5-methyl-2-pyrimidinyl)-2-butanesulfonamide], 0.63 nM. Consider `COc1cccc(-c2nnc(NS(=O)(=O)[C@H](C)[C@@H](OC)c3ncc(C)cn3)n2-c2c(F)cccc2F)n1` [Example 792.0, (1S,2R)-N-(4-(2,6-difluorophenyl)-5-(6-methoxy-2-pyridinyl)-4H-1,2,4-triazol-3-yl)-1-methoxy-1-(5-methyl-2-pyrimidinyl)-2-propanesulfonamide], for which the EC50 was determined as 51 nM. With `Cc1cnc([C@@H](C)[C@H](C)S(=O)(=O)Nc2nnc(-c3cccnc3)n2-c2c(F)cccc2F)nc1` [Example 793.0, (2S,3R)-N-(4-(2,6-difluorophenyl)-5-(3-pyridinyl)-4H-1,2,4-triazol-3-yl)-3-(5-methyl-2-pyrimidinyl)-2-butanesulfonamide] the figure was 15 nM.

As a reminder, the EC50 is the concentration that produces a half-maximal response.
